Measured values from US20090069343A1, “Combination Histamine H1R and H4R Antagonist Therapy for Treating Pruritus” (priority 2006, published 2009).

Legend:
Format in all cases: in vivo, mouse
[1] = tested on: CD-1 mice, histamine-induced itch; experiment: Histamine-induced itch, Example 1a; details: oral dose 20 min before i.d. histamine, FIG. 8
Description: Methods. Experiments and procedures were performed under on-site IACUC standards and regulations. Female CD-1 mice (Charles River Hollister, Calif.) of approximately 10-12 weeks of age were used. Mice were housed under controlled light (6:00-18:00 h) and temperature (22° C.) with food and water available ad libitum. Histamine diphosphate (Sigma, St. Louis, Mo.) was dissolved in Dulbecco's phosphate buffered saline (PBS, pH=7.4) at various concentrations. H4R Inhibitor 1 was synthesized as described by Jablonowski et al. (J. Med. Chem. (2003), 46, 3957-3960), dissolved in a vehicle of 20% HPBCD/water at various concentrations, and administered per os (p.o.; by mouth) at a volume of 10 ml/kg. Antagonists of other histamine receptors, H1R (diphenhydramine and desloratadine), H2R (ranitidine) and H3R (1-[3-(4-piperidin-1-ylmethyl-phenoxy)-propyl]-piperidine, (“H3R Antagonist 1”; synthesized as described by Barbier et al., British J. Pharmacology (2004), 143: 649-661) were formulated similarly for use in experiments. In all experiments the hair was clipped over the rostral part of the back 24 hours prior to i.d. injection of pruritogen. Where noted, animals received an oral dose of histamine receptor antagonist 20 minutes prior to injection of pruritogen. Animals were injected i.d. with 20 μl of histamine. PBS was given as the vehicle control (“V). Immediately after intradermal injection, the animals were returned to an acrylic cage (approx. 15 cm dia×30 cm) to which they had been acclimated for at least 1 hour prior to the experiment, for observation of itch responses.

[2] = tested on: mice, H4R agonist-induced scratching; experiment: Selective H4R agonist-induced scratching, background example; details: oral administration; FIG. 6
[3] = tested on: Balb/c mice, Compound 48/80-induced itch response; experiment: Compound 48/80-induced itch response (scratches in 20 min), background example; details: for inhibition of itch response: Compound 48/80, FIG. 2
Description: The role of histamine H4 receptor in itch responses was evaluated in mice.

[4] = tested on: mice, histamine-induced scratching; experiment: Histamine-induced scratching, background example; details: FIG. 4
Description: To evaluate the direct role of histamine in the pruritic response, histamine was injected in to the skin of mice and the amount of scratching measured.

[5] = tested on: CD-1 mice, Compound 48/80-induced itch; experiment: Compound 48/80-induced itch, Example 1b; details: oral dose 20 min before i.d. Compound 48/80, FIG. 9
Description: Methods. Experiments and procedures were performed under on-site IACUC standards and regulations. Female CD-1 mice (Charles River Hollister, Calif.) of approximately 10-12 weeks of age were used. Mice were housed under controlled light (6:00-18:00 h) and temperature (22° C.) with food and water available ad libitum. Compound 48/80 (Sigma, St. Louis, Mo.) was dissolved in Dulbecco's phosphate buffered saline (PBS, pH=7.4) at 5 mg/ml. H4R Inhibitor 1 (synthesized as previously described) was dissolved in a vehicle of 20% HPBCD/water at various concentrations and administered p.o. at a volume of 10 ml/kg. […] In all experiments the mouse hair was clipped over the rostral part of the back 24 hours prior to i.d. injection of pruritogen. Where noted, animals received an oral dose of histamine receptor antagonist 20 min prior to injection of pruritogen. Animals were injected i.d. with 20 μl of Compound 48/80 or were given PBS as a vehicle control. Immediately after intradermal injection, the animals were returned to an acrylic cage (approx. 15 cm diameter×30 cm height) to which they had been acclimated for at least 1 h prior to the experiment, for observation of itch responses.

| SMILES | effect on histamine-induced itch [1] | effect on H4R agonist-induced scratching [2] | inhibition of itch response ([3]; 3 mg/kg) [%] | reduction of itch response ([3]; 30 mg/kg orally prior to Compound 48/80 injection, Balb/c mice) [%] | inhibition of itch response ([3]; 100 mg/kg (maximally active)) [%] | inhibition of histamine-induced scratching ([4]; 3 mg/kg oral pre-treatment) [%] | inhibition of histamine-induced scratching ([4]; 30 mg/kg oral pre-treatment (maximal)) [%] | effect on histamine-induced scratching ([4]; oral pre-treatment) | effect on Compound 48/80-induced itch [5] |
| --- | --- | --- | --- | --- | --- | --- | --- | --- | --- |
| c1cc(OCCCN2CCCCC2)ccc1CN1CCCCC1 [H3R Antagonist 1, 1-[3-(4-piperidin-1-ylmethyl-phenoxy)-propyl]-piperidine] | neither the H2R antagonist ranitidine nor the H3R antagonist demonstrated significant inhibition |  |  |  |  |  |  |  |  |
| CN1CCN(C(=O)c2cc3cc(Cl)ccc3[nH]2)CC1 [H4R Inhibitor 1] | significant reduction of histamine-induced itch | inhibitable | 12 | 62.5 | 68 | 17 | 75 | dose-dependently inhibited | significantly reduced the itch |
| Clc1ccc2c(c1)CCc1cccnc1C2=C1CCNCC1 [desloratadine] | no effect |  |  |  |  |  |  |  |  |
| CN(C)CCOC(c1ccccc1)c1ccccc1 [diphenhydramine, reference compound] | Small but significant inhibition |  |  |  |  |  |  |  | Small but significant inhibition |
